Laboratory results: patent US20260216154A1, “POTASSIUM CHANNEL BLOCKERS OR DERIVATIVES THEREOF FOR PREVENTING, ALLEVIATING, AND/OR TREATING MORBIDITY AND MORTALITY INDUCED BY PATHOGENS OR OTHER INDUCERS OF IMMUNE […]/OR EXCESS IMMUNE ACTIVATI” (University of Rochester, priority 2023, published 2026)
“Also recorded” adds a separate entry of the source.

Columns and labels:
[1] = system: non-neurotropic, non-lethal influenza virus (x31 strain); assay type: in vivo, mice; settings: accelerating rod, three consecutive runs
[2] = system: influenza virus (x31); assay type: in vivo, mice

Nc1ccncc1 [4-AP, 4-aminopyridine]
animals showing a decreased time to fall on the rotarod [1]: 27% | mice surviving until at least Day 14 (survivors/treated) ([2]; […], 4-AP 1.5 mg/kg, corticosteroid 1 mg/kg, N=7/group): 7/7 | influenza-induced weight loss (in words) ([2]; mouse, in vivo): lesser weight loss; also recorded: attenuated | survival of infected ATM KO mice (in words) ([2]; mouse, in vivo): complete rescue from death
